Source: PubChem BioAssay (NCI)
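Assay format: 96-well plates, 48-hour exposure. GI50: concentration for 50% inhibition of growth. TGI: concentration producing complete growth inhibition.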

Legend:
Test in all cases: growth of human tumour cells (NCI), 48 h
MALME-3M melanoma = test system: MALME-3M melanoma
NCI/ADR-RES ovarian = test system: NCI/ADR-RES ovarian
HCT-116 colon = test system: HCT-116 colon
SF-268 CNS = test system: SF-268 CNS
OVCAR-5 ovarian = test system: OVCAR-5 ovarian
SK-MEL-5 melanoma = test system: SK-MEL-5 melanoma
SW-620 colon = test system: SW-620 colon
OVCAR-8 ovarian = test system: OVCAR-8 ovarian
K-562 leukemia = test system: K-562 leukemia
SK-MEL-2 melanoma = test system: SK-MEL-2 melanoma
M14 melanoma = test system: M14 melanoma
BT-549 breast = test system: BT-549 breast
ACHN renal = test system: ACHN renal
OVCAR-4 ovarian = test system: OVCAR-4 ovarian
SK-MEL-28 melanoma = test system: SK-MEL-28 melanoma
HOP-92 NSCLC = test system: HOP-92 NSCLC
SR leukemia = test system: SR leukemia
IGROV1 ovarian = test system: IGROV1 ovarian
UACC-62 melanoma = test system: UACC-62 melanoma
SF-539 CNS = test system: SF-539 CNS
KM12 colon = test system: KM12 colon
NCI-H460 lung = test system: NCI-H460 lung
HL-60(TB) leukemia = test system: HL-60(TB) leukemia
OVCAR-3 ovarian = test system: OVCAR-3 ovarian
NCI-H23 lung = test system: NCI-H23 lung
TK-10 renal = test system: TK-10 renal
RPMI-8226 leukemia = test system: RPMI-8226 leukemia
HT29 colon = test system: HT29 colon
SNB-19 CNS = test system: SNB-19 CNS
CCRF-CEM leukemia = test system: CCRF-CEM leukemia
COLO 205 colon = test system: COLO 205 colon
MDA-MB-231 breast = test system: MDA-MB-231 breast
MCF7 breast = test system: MCF7 breast
SNB-75 CNS = test system: SNB-75 CNS
HOP-62 NSCLC = test system: HOP-62 NSCLC
SK-OV-3 ovarian = test system: SK-OV-3 ovarian
HCC-2998 colon = test system: HCC-2998 colon
T-47D breast = test system: T-47D breast
MDA-MB-435 = test system: MDA-MB-435
UO-31 renal = test system: UO-31 renal
HCT-15 colon = test system: HCT-15 colon
LOX IMVI melanoma = test system: LOX IMVI melanoma
MOLT-4 leukemia = test system: MOLT-4 leukemia
A498 renal = test system: A498 renal
786-0 renal = test system: 786-0 renal
SN12C renal = test system: SN12C renal
NCI-H522 lung = test system: NCI-H522 lung
DU-145 prostate = test system: DU-145 prostate
SF-295 CNS = test system: SF-295 CNS
CAKI-1 renal = test system: CAKI-1 renal
PC-3 prostate = test system: PC-3 prostate
HS 578T breast = test system: HS 578T breast
NCI-H226 lung = test system: NCI-H226 lung
UACC-257 melanoma = test system: UACC-257 melanoma
EKVX NSCLC = test system: EKVX NSCLC
A549 NSCLC = test system: A549 NSCLC
RXF 393 renal = test system: RXF 393 renal

Cc1cc(OCc2n[nH]c(=S)n2/N=C/c2ccc(F)cc2)ccc1Cl
GI50 (MALME-3M melanoma): 25.1 µM
TGI (MALME-3M melanoma): 56.5 µM
GI50 (NCI/ADR-RES ovarian): 29.3 µM
TGI (NCI/ADR-RES ovarian): 87.3 µM
GI50 (HCT-116 colon): 23.3 µM
TGI (HCT-116 colon): 53.1 µM
GI50 (SF-268 CNS): 30 µM
TGI (SF-268 CNS): 86.7 µM
GI50 (OVCAR-5 ovarian): > 100 µM
TGI (OVCAR-5 ovarian): > 100 µM
GI50 (SK-MEL-5 melanoma): 17.9 µM
TGI (SK-MEL-5 melanoma): 35 µM
GI50 (SW-620 colon): 34.5 µM
TGI (SW-620 colon): > 100 µM
GI50 (OVCAR-8 ovarian): 38.8 µM
TGI (OVCAR-8 ovarian): > 100 µM
GI50 (K-562 leukemia): 20.8 µM
TGI (K-562 leukemia): 54 µM
GI50 (SK-MEL-2 melanoma): 23.1 µM
TGI (SK-MEL-2 melanoma): 57.2 µM
GI50 (M14 melanoma): 29 µM
TGI (M14 melanoma): > 100 µM
GI50 (BT-549 breast): 48 µM
TGI (BT-549 breast): > 100 µM
GI50 (ACHN renal): 31.2 µM
TGI (ACHN renal): 87.5 µM
GI50 (OVCAR-4 ovarian): 25.4 µM
TGI (OVCAR-4 ovarian): 55.4 µM
GI50 (SK-MEL-28 melanoma): 26.7 µM
TGI (SK-MEL-28 melanoma): 74.2 µM
GI50 (HOP-92 NSCLC): 32.6 µM
TGI (HOP-92 NSCLC): > 100 µM
GI50 (SR leukemia): 18.5 µM
TGI (SR leukemia): 39.7 µM
GI50 (IGROV1 ovarian): 25.4 µM
TGI (IGROV1 ovarian): 82.3 µM
GI50 (UACC-62 melanoma): 20.1 µM
TGI (UACC-62 melanoma): 41.8 µM
GI50 (SF-539 CNS): 25.8 µM
TGI (SF-539 CNS): 57.4 µM
GI50 (KM12 colon): 22.1 µM
TGI (KM12 colon): 53.8 µM
GI50 (NCI-H460 lung): 28.6 µM
TGI (NCI-H460 lung): > 100 µM
GI50 (HL-60(TB) leukemia): 18.3 µM
TGI (HL-60(TB) leukemia): 47.2 µM
GI50 (OVCAR-3 ovarian): 22.9 µM
TGI (OVCAR-3 ovarian): 49.4 µM
GI50 (NCI-H23 lung): 29.8 µM
TGI (NCI-H23 lung): 94 µM
GI50 (TK-10 renal): 19.1 µM
TGI (TK-10 renal): 58 µM
GI50 (RPMI-8226 leukemia): 16.7 µM
TGI (RPMI-8226 leukemia): 40.1 µM
GI50 (HT29 colon): 18.9 µM
TGI (HT29 colon): 37.7 µM
GI50 (SNB-19 CNS): 27.8 µM
TGI (SNB-19 CNS): 83.8 µM
GI50 (CCRF-CEM leukemia): 25.7 µM
TGI (CCRF-CEM leukemia): 70.2 µM
GI50 (COLO 205 colon): 15.9 µM
TGI (COLO 205 colon): 35.8 µM
GI50 (MDA-MB-231 breast): 23.4 µM
TGI (MDA-MB-231 breast): 62.5 µM
GI50 (MCF7 breast): 33.1 µM
TGI (MCF7 breast): > 100 µM
GI50 (SNB-75 CNS): 22.7 µM
TGI (SNB-75 CNS): 69.2 µM
GI50 (HOP-62 NSCLC): 81 µM
TGI (HOP-62 NSCLC): > 100 µM
GI50 (SK-OV-3 ovarian): 31.7 µM
TGI (SK-OV-3 ovarian): 82.3 µM
GI50 (HCC-2998 colon): 20.6 µM
TGI (HCC-2998 colon): 43.7 µM
GI50 (T-47D breast): 20.5 µM
TGI (T-47D breast): 57.3 µM
GI50 (MDA-MB-435): 25.9 µM
TGI (MDA-MB-435): > 100 µM
GI50 (UO-31 renal): 29.5 µM
TGI (UO-31 renal): 91.6 µM
GI50 (HCT-15 colon): 19.2 µM
TGI (HCT-15 colon): 47.2 µM
GI50 (LOX IMVI melanoma): 16.1 µM
TGI (LOX IMVI melanoma): 32.4 µM
GI50 (MOLT-4 leukemia): 19.4 µM
TGI (MOLT-4 leukemia): 51 µM
GI50 (A498 renal): 25.1 µM
TGI (A498 renal): 68.3 µM
GI50 (786-0 renal): 29.2 µM
TGI (786-0 renal): 87.2 µM
GI50 (SN12C renal): 19.6 µM
TGI (SN12C renal): 37.1 µM
GI50 (NCI-H522 lung): 21.7 µM
TGI (NCI-H522 lung): 54.8 µM
GI50 (DU-145 prostate): 56.7 µM
TGI (DU-145 prostate): > 100 µM
GI50 (SF-295 CNS): 30.1 µM
TGI (SF-295 CNS): > 100 µM
GI50 (CAKI-1 renal): 42.8 µM
TGI (CAKI-1 renal): > 100 µM
GI50 (PC-3 prostate): 29.2 µM
TGI (PC-3 prostate): > 100 µM
GI50 (HS 578T breast): 56.6 µM
TGI (HS 578T breast): > 100 µM
GI50 (NCI-H226 lung): 22.4 µM
TGI (NCI-H226 lung): 54.7 µM
GI50 (UACC-257 melanoma): 26.4 µM
TGI (UACC-257 melanoma): 62 µM
GI50 (EKVX NSCLC): 64.4 µM
TGI (EKVX NSCLC): > 100 µM
GI50 (A549 NSCLC): 26.6 µM
TGI (A549 NSCLC): 68.6 µM
GI50 (RXF 393 renal): 22.4 µM
TGI (RXF 393 renal): 46.8 µM
